Columns and labels:
Leishmania donovani = assay: Antiprotozoal activity against amastigote/ axenic stage of Leishmania donovani MHOM-ET-67/L82 after 72 hrs by Alamar blue assay; type: functional, organism-based; settings: MHOM-ET-67/L82, 72 h
Plasmodium falciparum = assay: Antiprotozoal activity against erythrocytic stages of Plasmodium falciparum K1 by [3H]hypoxanthine incorporation assay; type: functional, organism-based
[1] = tested on: Trypanosoma brucei rhodesiense; assay: Antiprotozoal activity against Trypanosoma brucei rhodesiense STIB 900 after 72 hrs by Alamar blue assay; type: functional, organism-based; settings: STIB 900, 72 h
Trypanosoma cruzi = assay: Antiprotozoal activity against Trypanosoma cruzi Tulahuen C4 amastigotes after 96 hrs; type: functional, organism-based; settings: Tulahuen C4, 96 h
L6 [2] = assay: Cytotoxicity against rat L6 cells after 72 hrs by Alamar blue assay; type: cell-based; settings: L6, 72 h
L6 [3] = assay: Cytotoxicity against rat L6 cells at 10 uM after 72 hrs by Alamar blue assay; type: cell-based; settings: l6, 72 h

| Compound | IC50 (Leishmania donovani) [µM] | IC50 (Plasmodium falciparum) [µM] | IC50 [1] [µM] | IC50 (Trypanosoma cruzi) [µM] | IC50 (L6 [2]) [µM] | Activity (L6 [3]) |
| --- | --- | --- | --- | --- | --- | --- |
| COc1cc(CC(=O)NCCCOCCOCCOCCCNC(=O)Cc2ccc(O)c(OC)c2)ccc1O | 150 | > 9.1 | 110 | > 160 | > 160 |  |
| O=C(Cc1ccccc1O)NCCCNCCCCNCCCNC(=O)Cc1ccccc1O | 110 | 0.0086 | 51 | > 130 | > 130 | Non-toxic |
| NCCCNCCCCNCCCNC(=O)Cc1ccccc1 |  | 35 |  |  | 94 |  |
| COc1cc(CC(=O)NCCCCNCCCNC(=O)Cc2ccc(O)c(OC)c2)ccc1O | > 150 | > 8.5 | 150 | > 150 | > 150 |  |
| COc1ccc(OC)c(CC(=O)NCCCNCCCCNCCCNC(=O)Cc2cc(OC)ccc2OC)c1 | 35 | 0.019 | 38 | 31 | 88 | Non-toxic |
| O=C(Cc1cccc(O)c1)NCCCNCCCCNCCCNC(=O)Cc1cccc(O)c1 | > 130 | 0.17 | 87 | > 130 | > 130 | Non-toxic |
| O=C(Cc1ccc(O)c(O)c1)NCCCNCCNC(=O)Cc1ccc(O)c(O)c1 | > 170 | > 9.4 | 7.5 | > 170 | 140 | Non-toxic |
| O=C(Cc1ccccc1)NCCCOCCOCCOCCCNC(=O)Cc1ccccc1 | > 200 | > 11 | 63 | > 200 | > 200 |  |
| COc1cc(CC(=O)NCCCCNC(=O)Cc2ccc(O)c(OC)c2)ccc1O | > 220 | > 12 | 210 | > 220 | > 220 |  |
| COc1cc(CC(=O)NCCN(C)C)ccc1O | > 250 | > 14 | 170 | > 250 | > 250 |  |
| O=C(Cc1ccc(O)c(O)c1)NCCCOCCOCCOCCCNC(=O)Cc1ccc(O)c(O)c1 | > 170 | > 9.6 | 5.2 | > 170 | 96 |  |
| O=C(Cc1ccccc1)NCCCNCCCCNCCCNC(=O)Cc1ccccc1 | 90 | 0.14 | 96 | > 140 | > 140 | Non-toxic |
| O=C(Cc1ccccc1O)NCCCNCCNCCCNC(=O)Cc1ccccc1O | > 130 | 0.61 | 49 | > 130 | > 130 | Non-toxic |
| O=C(Cc1ccccc1)NCCCCNC(=O)Cc1ccccc1 | > 280 | > 15 | 110 | > 280 | > 280 |  |
| O=C(Cc1ccc(O)cc1)NCCCNCCCCNCCCNC(=O)Cc1ccc(O)cc1 | > 130 | 0.14 | 86 | > 130 | 130 | Non-toxic |
| COc1cc(CC(=O)NCCN2CCOCC2)ccc1O | > 220 | > 12 | 150 | > 220 | 210 |  |
| COc1cc(CC(=O)NCCCNCCNC(=O)Cc2ccc(O)c(OC)c2)ccc1O | > 160 | > 8.9 | 110 | > 160 | > 160 |  |
| COc1cc(CC(=O)NCCCNCCCCNCCCNC(=O)Cc2ccc(O)c(OC)c2)ccc1O | > 120 | 0.89 | 78 | > 120 | > 120 | Non-toxic |
| O=C(Cc1ccccc1)NCCCNCCCCNCCCNC(=O)C(F)(F)F |  | 8 |  |  | 110 |  |
| O=C(Cc1ccc(O)c(O)c1)NCCCCNCCCNC(=O)Cc1ccc(O)c(O)c1 | > 160 | 7.9 | 5.9 | > 160 | 97 | Non-toxic |
| O=C(Cc1ccc(O)cc1)NCCCCNCCCNC(=O)Cc1ccc(O)cc1 | > 170 | 3.6 | 120 | > 170 | > 170 |  |
| O=C(Cc1ccc(O)c(O)c1)NCCCCNC(=O)Cc1ccc(O)c(O)c1 | > 230 | > 13 | 3.3 | > 230 | 130 |  |
| COc1cc([C@@H]2c3cc4c(cc3[C@H](O)[C@H]3COC(=O)[C@H]23)OCO4)cc(OC)c1OC [PODOFILOX] |  |  |  |  | 0.019 |  |
| COc1cc(CC(=O)NCCCNCCNCCCNC(=O)Cc2ccc(O)c(OC)c2)ccc1O | > 120 | > 6.8 | 120 | > 120 | > 120 |  |
| O=C(Cc1ccc(O)c(O)c1)NCCCNCCCCNCCCNC(=O)Cc1ccc(O)c(O)c1 | > 120 | 4.8 | 3.2 | > 120 | 85 | Non-toxic |
| O=C(Cc1cccc(O)c1)NCCCNCCNC(=O)Cc1cccc(O)c1 | > 180 | > 10 | 120 | > 180 | > 180 |  |

Reference: ChEMBL document CHEMBL2311501, “Discovery and preliminary structure-activity relationship analysis of 1,14-sperminediphenylacetamides as potent and selective antimalarial lead compounds” (Bioorg Med Chem Lett, 2013)
